What follows are compounds tested on TNFα (assay: IRAK4 Monocyte TNFα Cell Based Assay). Conditions: Homo sapiens, Monocyte, human monocytes, LPS stimulated; compounds 1-32; read-out: EC50 TNF.
Set-up: species or system human
How it was run: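 TNFα release quantified by HTRF (cryptate/XL665 antibody pair, overnight at RT) after 1 h compound pre-incubation (0.1% DMSO) and 4 h LPS challenge at 50 pg/ml, 37 °C, 5,000 monocytes per well. Signal ratio normalised between unstimulated (0%) and stimulated (100%) controls.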

EC50 [nM] | SMILES
7540 | CC(=O)NC1CCN(C(=O)c2nnc(-c3cnc(-c4ccc5cc(C#N)cnn45)cc3NC(C)C)s2)CC1 [Example 8, N-(1-(5-(6-(3-cyanopyrrolo[1,2-b]pyridazin-7-yl)-4-(isopropylamino)pyridin-3-yl)-1,3,4-thiadiazole-2-carbonyl)piperidin-4-yl)acetamide]

Same assay, conditions: Homo sapiens, Monocyte, human monocytes; second part of Table 2, compounds 33-343; unit inferred; read-out: EC50 MONO TNF HTRF

EC50 [nM] | SMILES
1.4 | C[C@H](C#N)Nc1cc(-c2ccc3cc(C#N)cnn23)ncc1-c1nnc(N2C[C@H]3CC[C@@H](C2)[C@@H]3NC(=O)C2CC2)s1 [Example 148, N-((1R,5S,8S)-3-(5-(4-(((R)-1-cyanoethyl)amino)-6-(3-cyanopyrrolo[1,2-b]pyridazin-7-yl)pyridin-3-yl)-1,3,4-thiadiazol-2-yl)-3-azabicyclo[3.2.1]octan-8-yl)cyclopropanecarboxamide]
1000 | CC(C)Nc1cc(-c2ccc3cc(C#N)cnn23)ncc1-c1nnc(N2CCC(F)(F)CC2)s1 [Example 294, 7-(5-(5-(4,4-difluoropiperidin-1-yl)-1,3,4-thiadiazol-2-yl)-4-(isopropylamino)pyridin-2-yl)pyrrolo[1,2-b]pyridazine-3-carbonitrile]

Same assay, conditions: human monocytes; second part of Table 2, compounds 33-343; unit inferred; read-out: EC50 MONO TNF HTRF

SMILES | EC50 [nM]
CC(=O)N[C@H]1C[C@H]2CC[C@@H](C1)N2c1nnc(-c2cnc(-c3ccc4cc(C#N)cnn34)cc2NC(C)C)s1 [Example 55, N-((1R,3r,5S)-8-(5-(6-(3-cyanopyrrolo[1,2-b]pyridazin-7-yl)-4-(isopropylamino)pyridin-3-yl)-1,3,4-thiadiazol-2-yl)-8-azabicyclo[3.2.1]octan-3-yl)acetamide] | 115
CC(C)Nc1cc(-c2ccc3cc(C#N)cnn23)ncc1-c1nnc([C@H]2CC[C@H](NC(=O)C3CC3)CC2)s1 [Example 125, N-((1r,4r)-4-(5-(6-(3-cyanopyrrolo[1,2-b]pyridazin-7-yl)-4-(isopropylamino)pyridin-3-yl)-1,3,4-thiadiazol-2-yl)cyclohexyl)cyclopropanecarboxamide] | 5.4
CC(=O)NC1CCC2(CC1)CN(c1nnc(-c3cnc(-c4ccc5cc(C#N)cnn45)cc3NC3COC3)s1)C2 [Example 78, N-(2-(5-(6-(3-cyanopyrrolo[1,2-b]pyridazin-7-yl)-4-(oxetan-3-ylamino)pyridin-3-yl)-1,3,4-thiadiazo1-2-yl)-2-azaspiro[3.5]nonan-7-yl)acetamide] | 8.9
CC1(Nc2cc(-c3ccc4cc(C#N)cnn34)ncc2-c2nnc(N3C[C@H]4CC[C@@H](C3)[C@@H]4NC(=O)C(C)(C)O)s2)COC1 [Example 210, N-((1R,5S,8s)-3-(5-(6-(3-cyanopyrrolo[1,2-b]pyridazin-7-yl)-4-((3-methyloxetan-3-yl)amino)pyridin-3-yl)-1,3,4-thiadiazol-2-yl)-3-azabicyclo[3.2.1]octan-8-yl)-2-hydroxy-2-methylpropanamide] | 2.8

Further lines, results first:

EC50 [nM] | SMILES
114 | CC(C)Nc1cc(-c2ccc3cc(C#N)cnn23)ncc1-c1nnc(C(C)(C)O)s1 [Example 80, 7-(5-(5-(2-hydroxypropan-2-yl)-1,3,4-thiadiazol-2-yl)-4-(isopropylamino)pyridin-2-yl)pyrro1o[1,2-b]pyridazine-3-carbonitrile]
72.4 | CC(C)Nc1cc(-c2ccc3cc(C#N)cnn23)ncc1-c1nnc(C2CCC(NC(=O)C(C)(C)C(=O)O)CC2)s1 (stereo not drawn) [Compound 341]
35.7 | CC(=O)NC[C@H]1CCCN1C(=O)c1nnc(-c2cnc(-c3ccc4cc(C#N)cnn34)cc2NC(C)C)s1 [Example 42]
18.4 | CC1(O)CCN(c2nnc(-c3cnc(-c4ccc5cc(C#N)cnn45)cc3NC3(C)COC3)s2)CC1 [Example 181, 7-(5-(5-(4-hydroxy-4-methylpiperidin-l-yl)-1,3,4-thiadiazol-2-yl)-4-((3-methyloxetan-3-yl)amino)pyridin-2-yl)pyrrolo[1,2-b]pyridazine-3-carbonitrile]
17.5 | CC(C)Nc1cc(-c2ccc3cc(C#N)cnn23)ncc1-c1nnc([C@H]2CC[C@@H](NC(=O)C(C)(C)O)CC2)s1 [Example 312, N-((1s,4s)-4-(5-(6-(3-cyanopyrrolo[1,2-b]pyridazin-7-yl)-4-(isopropylamino)pyridin-3-yl)-1,3,4-thiadiazol-2-yl)cyclohexyl)-2-hydroxy-2-methylpropanamide]
10.5 | N#Cc1cnn2c(-c3cc(NC4COC4)c(-c4nnc([C@H]5CC[C@H](NC(=O)C6CC6)CC5)s4)cn3)ccc2c1 [Example 135, N-((1r,4r)-4-(5-(6-(3-cyanopyrrolo[1,2-b]pyridazin-7-yl)-4-(oxetan-3-ylamino)pyridin-3-yl)-1,3,4-thiadiazol-2-yl)cyclohexyl)cyclopropanecarboxamide]
9.8 | CC(C)Nc1cc(-c2ccc3cc(C#N)cnn23)ncc1-c1nnc(N2CCC(C)(O)CC2)s1 [Example 287, 7-(5-(5-(4-hydroxy-4-methylpiperidin-l-yl)-1,3,4-thiadiazol-2-yl)-4-(isopropylamino)pyridin-2-yl)pyrrolo[1,2-b]pyridazine-3-carbonitrile]
7.8 | CC(C)Nc1cc(-c2ccc3cc(C#N)cnn23)ncc1-c1nnc(N2C3CC2CN(C(=O)CN=S(C)(C)=O)C3)s1 [Compound 276, 7-(5-(5-(3-(2-((dimethyl(oxo)-16-sulfanylidene)amino)acetyl)-3,6-diazabicyclo[3.1.1]heptan-6-yl)-1,3,4-thiadiazol-2-yl)-4-(isopropylamino)pyridin-2-yl)pyrrolo[1,2-b]pyridazine-3-carbonitrile]
4.4 | CC(=O)N1CCC2(CC1)CN(c1nnc(-c3cnc(-c4ccc5cc(C#N)cnn45)cc3NC3CCOCC3)s1)C2 [Example 76, 7-(5-(5-(7-acetyl-2,7-diazaspiro[3.5]nonan-2-yl)-1,3,4-hiadiazol-2-yl)-4-((tetrahydro-2H-pyran-4-yl)amino)pyridin-2-yl)pyrrolo[1,2-b]pyridazine-3-carbonitrile]
4.1 | CC1(Nc2cc(-c3ccc4cc(C#N)cnn34)ncc2-c2nnc(N3C[C@H]4CC[C@@H](C3)[C@@H]4NC(=O)CN=S(C)(C)=O)s2)COC1 [Example 109, N-((1R,5S,8s)-3-(5-(6-(3-cyanopyrrolo[1,2-b]pyridazin-7-yl)-4-((3-methyloxetan-3-yl)amino)pyridin-3-yl)-1,3,4-thiadiazol-2-yl)-3-azabicyclo[3.2.1]octan-8-yl)-2-((dimethyl(oxo)-16-sulfanylidene)amino)acetamide]
4 | CC(C)Nc1cc(-c2ccc3cc(C#N)cnn23)ncc1-c1nnc(N2C[C@H]3CC[C@@H](C2)[C@@H]3NC(=O)C2(C)COC2)s1 [Example 94]
3.2 | CC(=O)N[C@H]1CC[C@H](c2nnc(-c3cnc(-c4ccc5cc(C#N)cnn45)cc3N[C@H]3CCC[C@@H](O)C3)s2)CC1 [Compound 245, N-((1S,4r)-4-(5-(6-(3-cyanopyrrolo[1,2-b]pyridazin-7-yl)-4-(((1S,3R)-3-hydroxycyclohexyl)amino)pyridin-3-yl)-1,3,4-thiadiazol-2-yl)cyclohexyl)acetamide]
3.1 | COC(=O)NC[C@H]1C[C@H](Nc2cc(-c3ccc4cc(C#N)cnn34)ncc2-c2nnc([C@H]3CC[C@H](NC(=O)N4CCOCC4)CC3)s2)C1 [Example 143]

Each compound was assayed against IRAK4 enzyme (Homo sapiens (Human), UniProt Q9NWZ3) (assay: IRAK4 Biochemical Assay (TR-FRET, STK1 KinEASE)). Conditions: not given.
Experimental: IRAK4 enzyme (Carna Biosciences, Chuo-ku, Kobe, Japan) activity was measured by detecting phosphorylated peptide substrate formation using an antibody against the phosphorylated peptide substrate. This is a time-resolved fluorescence resonance energy transfer (TR-FRET) immunoassay, based on the STK1 KinEASE Assay (Cisbio, Bedford, Mass.). The assay was designed as a simple two-step, endpoint assay (a 5 μl enzyme reaction followed by 5 μl stop and detect Solution) performed in ProxiPlate-384 Plus plates (Perkin Elmer, Waltham, Mass.). […] Compounds diluted in DMSO were spotted into 384 well plates using a Labcyte® Echo 550 Liquid Handling System prior to addition of IRAK4 enzyme and peptide substrate. Reaction solutions were delivered using a Multi-Flo (Bio-Tek Instruments). The enzyme and peptide solution was incubated with compound for 15 minutes at room temp before the reaction was initiated by the addition of ATP. The standard 5 μl reaction mixture contained 500 μM ATP, […] peptide (STK1 Peptide), 0.75 nM of IRAK4 in reaction buffer (50 mM HEPES, pH 7.0, 0.02% NaN3, 0.01% BSA, 0.1 mM Orthovanadate, 5 mM […], 0.025% NP-40, 1 mM DTT). After 120 min of incubation at room temperature, 5 μl of Stop and Detect Solution (1:100 Cryptate labeled anti-phosphorylated peptide antibody solution and 125 nM Tracer in a 50 mM HEPES pH 7.0 detection buffer containing sufficient EDTA) was added. The plate was then further incubated for 60 minutes at room temperature and read on Envision 2103 Multilabeled reader (PerkinElmer) with excitation/emission/FRET emission at 340 nm/615 nm665 nm, respectively. Fluorescence intensities at 615 nm and 665 nm emission wavelengths were expressed as aratio (665 nm/615 nm). Percentage of inhibition was calculated as below: % Inhibition=100×(Ratiosample−Ratio0% Inhibition)/(Ratio100% Inhibition−Ratio0% Inhibition)
The 0% inhibition value comes from control wells lacking inhibitor.

IRAK4 enzyme, sequence (Q9NWZ3 whole entry): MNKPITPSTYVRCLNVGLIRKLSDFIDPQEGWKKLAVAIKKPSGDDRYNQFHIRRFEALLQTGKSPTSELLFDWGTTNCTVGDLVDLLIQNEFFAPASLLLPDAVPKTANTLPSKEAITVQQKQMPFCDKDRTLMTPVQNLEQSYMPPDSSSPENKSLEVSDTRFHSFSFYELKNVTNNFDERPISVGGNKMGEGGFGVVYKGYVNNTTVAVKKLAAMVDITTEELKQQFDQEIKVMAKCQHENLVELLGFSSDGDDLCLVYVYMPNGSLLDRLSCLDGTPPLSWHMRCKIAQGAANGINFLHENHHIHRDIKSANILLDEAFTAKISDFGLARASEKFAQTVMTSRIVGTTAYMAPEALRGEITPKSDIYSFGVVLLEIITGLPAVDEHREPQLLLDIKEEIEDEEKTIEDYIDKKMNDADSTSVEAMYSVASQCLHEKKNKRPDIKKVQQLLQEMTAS

SMILES | IC50 [nM]
CC(C)Nc1cc(-c2ccc3cc(C#N)cnn23)ncc1-c1nnc(C(=O)N2CCC[C@H]2CN)s1 [Example 229, (S)-7-(5-(5-(2-(aminomethyl)pyrrolidine-1-carbonyl)-1,3,4-thiadiazol-2-yl)-4-(isopropylamino)pyridin-2-yl)pyrrolo[1,2-b]pyridazine-3-carbonitrile] | 0.64
CC(=O)NC12CCC(c3nnc(-c4cnc(-c5ccc6cc(C#N)cnn56)cc4NC4COC4)s3)(CC1)OC2 [Example 198, N-(1-(5-(6-(3-cyanopyrrolo[1,2-b]pyridazin-7-yl)-4-(oxetan-3-ylamino)pyridin-3-yl)-1,3,4-thiadiazol-2-yl)-2-oxabicyclo[2.2.2]octan-4-yl)acetamide] | 0.79
CC(C)Nc1cc(-c2ccc3cc(C#N)cnn23)ncc1-c1nnc(C(=O)N2CCC[C@@H]2CN)s1 [Compound 230, (R)-7-(5-(5-(2-(aminomethyl)pyrrolidine-1-carbonyl)-1,3,4-thiadiazol-2-yl)-4-(isopropylamino)pyridin-2-yl)pyrrolo[1,2-b]pyridazine-3-carbonitrile] | 0.74
CC(C)Nc1cc(-c2ccc3cc(C#N)cnn23)ncc1-c1nnc([C@H]2C[C@H](NC3COC3)C2)s1 [Example 283, 7-(4-(isopropylamino)-5-(5-((1r,3r)-3-(oxetan-3-ylamino)cyclobutyl)-1,3,4-thiadiazol-2-yl)pyridin-2-yl)pyrrolo[1,2-b]pyridazine-3-carbonitrile] | 0.66

Reference: patent US11046686B2, “Thiadiazole IRAK4 compounds” (Gilead Sciences, Inc., priority 2018, dated 2021)
